{"source": "ChEMBL document CHEMBL1152054", "about": "“Synthesis and evaluation of a -lactam-containing dipeptide analog as a protease inhibitor” (Bioorg Med Chem Lett, 1996)", "key": {"Chymotrypsinogen B": {"target": "Chymotrypsinogen B (Homo sapiens, UniProt P17538)", "sequence (P17538 34-164 limits assumed, other chains not shown)": "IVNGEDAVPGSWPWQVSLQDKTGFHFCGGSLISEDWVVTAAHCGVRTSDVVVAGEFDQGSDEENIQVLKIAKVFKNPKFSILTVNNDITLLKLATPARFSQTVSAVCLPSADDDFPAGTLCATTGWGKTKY", "sequence (P17538 167-263 limits assumed, other chains not shown)": "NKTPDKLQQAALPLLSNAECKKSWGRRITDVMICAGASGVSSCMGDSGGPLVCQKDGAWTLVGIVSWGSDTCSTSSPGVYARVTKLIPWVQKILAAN", "assay": "Compound was tested for inhibition of alpha-chymotrypsin serine protease to produce one-half maximal enzyme activity."}, "[1]": {"assay": "Compound was tested for inhibition of carboxypeptidase Y serine protease to produce one-half maximal enzyme activity."}, "[2]": {"assay": "Compound was tested for inhibition of elastase serine protease to produce one-half maximal enzyme activity."}, "[3]": {"assay": "Compound was tested for inhibition of proteinase K serine protease to produce one-half maximal enzyme activity."}}}
{"smiles": "COC(=O)CN1CC(Cc2ccccc2)(NC(=O)c2ccccc2)C1=O", "note": "(centres undefined)", "values": [{"measurement": "Inhibition constant", "setting": "Chymotrypsinogen B", "value": 0.3, "unit": "mM"}, {"measurement": "Inhibition constant", "setting": "[1]", "value": 0.3, "unit": "mM"}, {"measurement": "Inhibition constant", "setting": "[2]", "value": "> 1.2", "unit": "mM"}, {"measurement": "Inhibition constant", "setting": "[3]", "value": "> 1.2", "unit": "mM"}]}
